Measured values: US20180265877A1, “METHODS AND COMPOSITIONS FOR AGROBACTERIUM COMPRISING NEGATIVE SELECTION MARKERS” (PIONEER HI-BRED INTERNATIONAL, INC., priority 2015, published 2018)

Assays:
[1] = tested on: immature embryos of inbred HC69; assay: Callus initiation from corn immature embryos, inbred HC69; assay type: cell-based; conditions: for HC69: embryos producing a callus response / embryos plated / Embryo with culture - Response (callus initiation frequency): 18 d cultured on 13152C; for Embryo with culture - Response (callus initiation frequency): HC69
Description: (§1) Agrobacterium was tolerant of the substrate (5-fluorocytosine) and was inhibited by low levels of the converted product (5-fluorouracil). An experiment was performed to determine whether corn immature embryos and growing callus were sensitive to the substrate, 5-fluorocytosine. Immature embryos of two inbred lines ([…] or PHH5G, representative non-stiff-stalk and stiff-stalk Pioneer Hi-Bred inbreds) were plated onto appropriate callus culture media (see Table 6) supplemented with 0, 100, […]

[2] = tested on: four Agrobacterium strains (AGL0, LBA4404, EHA101 and EHA105); assay: Agrobacterium growth assay, the four strains; assay type: cell-based; conditions: 5-fluorocytosine up to the highest concentration tested (1000 μg/ml)
Description: (§2) For all Agrobacterium growth-assay experiments, standard Agrobacterium minimal medium was used, with no additives as a control treatment, or with the addition of either 5-fluorocytosine, 5-fluorouracil or thymidine. To begin these tests, experiments were conducted to test for growth of wild-type and mutant AGL0 Agrobacterium strains on either 5-fluorocytosine (5-fluorocytosine, the non-toxic substrate of the CODA protein) or 5-fluorouracil (5-fluorouracil, the toxic product).

[3] = tested on: Agrobacterium strain LBA4404; assay: Agrobacterium growth assay on solid minimal medium, LBA4404; assay type: cell-based; set-up: key: a score of zero (0) indicating no visible colonies; 1+ indicating a few isolated colonies; ++: progressing up to 5+; +++: progressing up to 5+; ++++: progressing up to 5+; +++++: 5+ indicating a confluent lawn; conditions: LBA4404 plated at 1 × 10^4, after 3 days
Description: as §2

[4] = tested on: Agrobacterium strain AGL0; assay: Agrobacterium growth assay on solid minimal medium, wild-type AGL0; assay type: cell-based; set-up: key to Growth score: a score of zero (0) indicating no visible colonies; 1+ indicating a few isolated colonies; ++: progressing up to 5+; +++: progressing up to 5+; ++++: progressing up to 5+; +++++: 5+ indicating a confluent lawn
Description: as §2
(§3) In Table 4, results of a more detailed kill-curve for strain AGL0 on 5-fluorouracil are shown. […] Finally, a third experiment was performed using either wild-type AGL0 or an auxotrophic mutant of AGL0 in which the gene encoding thymidylate synthase was inactivated, rendering the bacteria incapable of growth in the absence of thymidine (this strain was referred to as AGL0 THY−). The two strains were plated at high densities (10^6 or 10^8 CFU/plate) onto medium containing 0, 1 or 3 μg/ml 5-fluorouracil, with each of these three treatments containing either 0 or 50 mg/l thymidine.
(§4) The newly developed AGL0 mutant strain (THY−/codA+, see Example 1) was plated on varying concentrations of 5-fluorocytosine to assess growth. This strain, along with wild-type AGL0 were cultured overnight in liquid medium, diluted to 10^7 CFU and then 100 μl of suspension was plated onto minimal Agro medium+/− thymidine, with either 0, 100, 200 or 300 μg/ml 5-fluorocytosine, for a total of 8 treatments. After 72 hours at 28° C., the plates were scored for Agrobacterium growth.

[5] = tested on: Agrobacterium strain EHA101; assay: Agrobacterium growth assay on solid minimal medium, EHA101; assay type: cell-based; set-up: key: a score of zero (0) indicating no visible colonies; 1+ indicating a few isolated colonies; ++: progressing up to 5+; +++: progressing up to 5+; ++++: progressing up to 5+; +++++: 5+ indicating a confluent lawn; conditions: EHA101 plated at 1 x 10^4, after 3 days
Description: as §2

[6] = tested on: Agrobacterium strain EHA105; assay: Agrobacterium growth assay on solid minimal medium, EHA105; assay type: cell-based; set-up: key: a score of zero (0) indicating no visible colonies; 1+ indicating a few isolated colonies; ++: progressing up to 5+; +++: progressing up to 5+; ++++: progressing up to 5+; +++++: 5+ indicating a confluent lawn; conditions: EHA105 plated at 1 × 10^4, after 3 days
Description: as §2

[7] = tested on: AGL0 mutant strain (THY−/codA+); assay: Growth of AGL0 THY−/codA+ on 5-fluorocytosine; assay type: cell-based, Agrobacterium
Description: as §4

[8] = tested on: immature embryos of inbred PHH5G; assay: Callus initiation from corn immature embryos, inbred PHH5G; assay type: cell-based; conditions: for PHH5G: embryos producing a callus response / embryos plated / Embryo with culture - Response (callus initiation frequency): 18 d cultured on 13152C; for Embryo with culture - Response (callus initiation frequency): PHH5G
Description: as §1

AGL0 THY− = assay: Agrobacterium growth assay on solid medium, thymidine auxotroph AGL0 THY−; assay type: cell-based; conditions: thy 50 mg/l, 5-fluorouracil 0 μg/ml, after 24 hours
Description: as §3

Nc1nc(=O)[nH]cc1F [5-fluorocytosine]
HC69: embryos producing a callus response / embryos plated ([1]; 100 μg/ml 5-fluorocytosine): 32/50
HC69: embryos producing a callus response / embryos plated ([1]; 250 μg/ml 5-fluorocytosine): 34/50
HC69: embryos producing a callus response / embryos plated ([1]; 400 μg/ml 5-fluorocytosine): 34/50
Embryo with culture - Response (callus initiation frequency) ([1]; 100 μg/ml 5-fluorocytosine): 64%
Embryo with culture - Response (callus initiation frequency) ([1]; 250 μg/ml 5-fluorocytosine): 68%
Embryo with culture - Response (callus initiation frequency) ([1]; 400 μg/ml 5-fluorocytosine): 68%
Callus initiation frequency or callus growth rates vs no 5-fluorocytosine ([1]; inbred printed as HC96, 100, 250 or 400 μg/ml 5-fluorocytosine, 3 weeks): no discernible differences
Growth inhibition [2]: no apparent growth inhibition
Growth score ([3]; 500 μg/ml 5-fluorocytosine): +++
Growth score ([3]; 1000 μg/ml 5-fluorocytosine): +++
Growth score ([4]; AGL0 plated at 1 × 10^4, 500 μg/ml 5-fluorocytosine, after 3 days): +++
Growth score ([4]; AGL0 plated at 1 × 10^4, 1000 μg/ml 5-fluorocytosine, after 3 days): +++
Growth score ([4]; AGL0 plated at 4 × 10^7, 500 μg/ml 5-fluorocytosine, after 3 days): +++++
Growth score ([4]; AGL0 plated at 4 × 10^7, 1000 μg/ml 5-fluorocytosine, after 3 days): +++++
Growth ([4]; wild-type AGL0, 100, 200 or 300 μg/ml 5-fluorocytosine, +/− thymidine, 72 hours at 28° C.): grew under all 5-fluorocytosine concentrations
Growth score ([5]; 500 μg/ml 5-fluorocytosine): +++
Growth score ([5]; 1000 μg/ml 5-fluorocytosine): +++
Growth score ([6]; 500 μg/ml 5-fluorocytosine): +++
Growth score ([6]; 1000 μg/ml 5-fluorocytosine): +++
Growth ([7]; 100, 200 or 300 μg/ml 5-fluorocytosine, thymidine present, 72 hours at 28° C.): did not grow
PHH5G: embryos producing a callus response / embryos plated ([8]; 100 μg/ml 5-fluorocytosine): 12/50
PHH5G: embryos producing a callus response / embryos plated ([8]; 250 μg/ml 5-fluorocytosine): 18/50
PHH5G: embryos producing a callus response / embryos plated ([8]; 400 μg/ml 5-fluorocytosine): 8/25
Embryo with culture - Response (callus initiation frequency) ([8]; 100 μg/ml 5-fluorocytosine): 24%
Embryo with culture - Response (callus initiation frequency) ([8]; 250 μg/ml 5-fluorocytosine): 36%
Embryo with culture - Response (callus initiation frequency) ([8]; 400 μg/ml 5-fluorocytosine): 32%
Callus initiation frequency or callus growth rates vs no 5-fluorocytosine ([8]; inbred PHH5G, 100, 250 or 400 μg/ml 5-fluorocytosine, 3 weeks): no discernible differences

Cc1cn([C@H]2C[C@H](O)[C@@H](CO)O2)c(=O)[nH]c1=O [thy, thymidine]
Growth score ([4]; AGL0 1 x 10^6, thy 50 mg/l, 5-fluorouracil 0 μg/ml, after 24 hours): +++
Growth score ([4]; AGL0 1 x 10^8, thy 50 mg/l, 5-fluorouracil 0 μg/ml, after 24 hours): +++
Growth score (AGL0 THY−; AGL0 THY- 1 x 10^6): +++
Growth score (AGL0 THY−; AGL0 THY- 1 x 10^8): +++
Growth ([7]; 50 mg/l thymidine, no 5-fluorocytosine, 72 hours): confluent lawn of colonies
